Reference: patent US10087156B2, “Methods and compositions related to retinoid receptor-selective pathway” (Sanford Burnham Prebys Medical Discovery Institute, priority 2010, dated 2018)

Columns and labels:
[1] = test system: interaction of p85α with tRXRα and/or RXRα; test: Co-immunoprecipitation with ΔN197 anti-RXRα antibody; assay type: cell-based; conditions: TNFα-enhanced
Protocol: RXRα interaction with p85α was examined. Anti-RXRα […]antibodies (Santa Cruz Biotechnology, Santa Cruz, Calif.) were used in co-immunoprecipitation (Co-IP) and Western blotting (WB) assays. BHK cells were treated with ATRA (10^−7 M) for 30 min. Lysates were prepared and analyzed for RXRα-p85α interaction using either D20 anti-RXRα or ΔN197 anti-RXRα antibody (FIG. 12D).
For the CoIP assay, cells or cells transfected with indicated expression vectors were suspended in lysis buffer (50 mM Tris-HCl, pH 7.4; 150 mM NaCl; 20 mM EDTA; 1% NP-40; 1 mM PMSF; […] Leupeptin; […] Aprotinin; 0.1 mM Na3VO4; and 1 mM DTT). Cell extracts were cleared by incubation with the Protein A/G plus Agarose beads (Santa Cruz Biotechnology, Santa Cruz, Calif.) and then incubated with appropriate antibody and […] of Protein A or G plus Agarose beads overnight at 4° C. Beads were then washed and boiled in Laemmli gel-loading solution before performing SDS-PAGE/immunoblotting using polyclonal or monoclonal antibodies. Immunoreactive products were detected by chemiluminescence with an enhanced chemiluminescence system (ECL™) (Amersham Biosciences, Amersham, UK).

RXRα LBD = RXRα LBD (Homo sapiens, UniProt P19793); test: Proteolytic protection assay (chymotrypsin sensitivity); assay type: binding; conditions: 100 μM
Protocol: Altered sensitivity of RXRα ligand-binding domain (LBD) to chymotrypsin (ug/ml) by Sulindac (100 μM) (FIG. 1C) and differential scanning calorimetry (DSC) scans comparing ^19F NMR spectra of Sulindac (100 μM) in the absence and presence of 10 μM RXRα LBD or Nur77 protein (FIG. 1D) were also determined. Binding to RXRα was confirmed by altered sensitivity of RXRα to chymotrypsin digestion by Sulindac (FIG. 1C) and differential scanning calorimetry (DSC) (FIG. 1D). In addition, inhibition of SR11237 (10^−6 M)-activated RXRα transactivation by Sulindac was measured (FIG. 1F, see Example 2).
RXRα LBD was synthesized by in vitro transcription-translation using rabbit reticulocyte lysates (Promega, Fitchburg, Wis.) as described previously (Kolluri, S. K. et al., Proc Natl Acad Sci USA 102 (7), 2525-2530 (2005); Zhang, X. K. et al., Nature 355 (6359), 441-446 (1992); Zhang, X.-K. et al., Nature. 358 (6387), 587-591 (1992)). In vitro translated ^35[S]methionine labeled RXRα-LBD was preincubated with solvent (1% DMSO), Sulindac (100 μM) or 9-cis-RA (10^−7 M) for 30 min. and then digested with indicated concentration of chymotrypsin. Digested fragments were separated by PAGE.

RXRα LBD, sequence (P19793 227-458 limits assumed): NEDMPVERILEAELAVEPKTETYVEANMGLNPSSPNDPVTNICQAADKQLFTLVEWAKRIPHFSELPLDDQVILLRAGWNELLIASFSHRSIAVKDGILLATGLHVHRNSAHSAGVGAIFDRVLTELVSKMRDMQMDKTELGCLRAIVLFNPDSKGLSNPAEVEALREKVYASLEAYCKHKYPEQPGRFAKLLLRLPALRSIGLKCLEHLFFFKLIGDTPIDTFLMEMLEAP

SMILES: CSc1ccc(/C=C2/C(C)=C(CC(=O)O)c3cc(F)ccc32)cc1 [Sulindac, (Z)-2-(3-(4-(Methylthio)benzylidene)-6-fluoro-2-methyl-3H-inden-1-yl)acetic acid]
- interaction of p85α with tRXRα and/or RXRα [1]: inhibited
- binding to RXRα by altered sensitivity to chymotrypsin digestion (RXRα LBD): confirmed
